# Assay results taken from patent US20190105367A1, “ANTIMICROBIAL 4-OXOQUINOLIZINES” (Emergent Product Development Gaithersburg Inc., priority 2011, published 2019).
# How the values were obtained:
# K. pneumoniae ATCC 33495 = experiment: MIC on K. pneumoniae (Example 5); type: cell-based, Klebsiella pneumoniae; settings: sensitive strain
# Description: (§1) MIC Values for all compounds were measured against a selection of bacterial strains. The MICs of 4-oxoquinolizines against a selection of Gram-negative and Gram-positive bacterial strains are shown in Table 13 in comparison with known antibiotics.
# A. baumannii ATCC 19606 = experiment: MIC, selected panel of bacterial strains (Example 5); type: cell-based, Acinetobacter baumannii
# [1] = tested on: S. aureus BAA-1556 (USA300-Type) (MRSA, FQ-R); experiment: as above; type: cell-based, Staphylococcus aureus; settings: MRSA, FQ-R
# B. thailandensis E264 = experiment: microbe, parasite or virus in culture; type: cell-based, Burkholderia thailandensis
# E. coli ATCC 25922 = experiment: MIC, selected panel of bacterial strains (Example 5); type: cell-based, Escherichia coli
# [2] = tested on: S. aureus ATCC 43300 (MRSA, FQ-S); experiment: as above; type: cell-based, Staphylococcus aureus
# P. aeruginosa ATCC 27853 = experiment: as above; type: cell-based, Pseudomonas aeruginosa
# S. aureus ATCC 25923 = experiment: as above; type: cell-based, Staphylococcus aureus
# [3] = tested on: K. pneumoniae BAA-2146 (NDM-1, FQ-R); experiment: MIC on K. pneumoniae (Example 5); type: cell-based, Klebsiella pneumoniae; settings: quinolone-resistant strain
# Description: as §1
structure (smiles),measurement,setting,value
"Cc1c(-c2cc(F)c(N)cc2F)ccn2c(=O)c(C(=O)[O-])cc(C3CC3)c12.[K+] [Compound 2K salt, potassium 8-(4-amino-2,5-difluoro-phenyl)-1-cyclopropyl-9-methyl-4-oxo-4H-quinolizine-3-carboxylate]",MIC,"K. pneumoniae ATCC 33495; Klebsiella pneumoniae, ATCC33495, read-out: MICs K. pneumoniae ATCC 33495",0.25 µg/mL
Cc1c(-c2ccc(CN)cc2)c(F)cn2c(=O)c(C(=O)[O-])cc(C3CC3)c12.[K+] [Compound 6K salt],MICs against Gram negative bacteria A. baumannii ATCC 19606,A. baumannii ATCC 19606,1 µg/mL
same,"MICs against Gram positive bacteria S. aureus BAA-1556 (USA300-Type) (MRSA, FQ-R)",[1],1 µg/mL
same,MICs against Gram negative bacteria B. thailandensis E264,B. thailandensis E264,4 µg/mL
same,MICs against Gram negative bacteria E. coli ATCC 25922,E. coli ATCC 25922,0.064 to 0.125 µg/mL
same,"MICs against Gram positive bacteria S. aureus ATCC 43300 (MRSA, FQ-S)","[2]; MRSA, FQ-S",0.064 µg/mL
same,MICs against Gram negative bacteria P. aeruginosa ATCC 27853,P. aeruginosa ATCC 27853,4 to 8 µg/mL
same,MICs against Gram positive bacteria S. aureus ATCC 25923,S. aureus ATCC 25923,0.125 µg/mL
"Cc1c(-c2ccc(N)nc2)ccn2c(=O)c(C(=O)[O-])cc(C3CC3)c12.[K+] [Compound 33K salt, potassium 8-(6-amino-pyridin-3-yl)-1-cyclopropyl-9-methyl-4-oxo-4H-quinolizine-3-carboxylate]","MICs K. pneumoniae BAA-2146 (NDM-1, FQ-R)",[3],>8 µg/mL
same,MICs K. pneumoniae ATCC 33495,K. pneumoniae ATCC 33495,0.064 µg/mL
"Cc1c(-c2ccc3[nH]ncc3c2)ccn2c(=O)c(C(=O)[O-])cc(C3CC3)c12.[K+] [Compound 35K salt, potassium 8-(1H-indazol-5-yl)-1-cyclopropyl-9-methyl-4-oxo-4H-quinolizine-3-carboxylate]","MICs K. pneumoniae BAA-2146 (NDM-1, FQ-R)",[3],>8 µg/mL
same,MICs K. pneumoniae ATCC 33495,K. pneumoniae ATCC 33495,0.125 µg/mL
"Cc1c(-c2ccc3cn[nH]c3c2)ccn2c(=O)c(C(=O)[O-])cc(C3CC3)c12.[K+] [Compound 83K salt, potassium 8-(1H-indazol-6-yl)-1-cyclopropyl-9-methyl-4-oxo-4H-quinolizine-3-carboxylate]",MIC,"B. thailandensis E264; Burkholderia thailandensis, E264, read-out: MICs against Gram negative bacteria B. thailandensis E264",0.125 µg/mL
same,MIC,"[2]; Staphylococcus aureus, read-out: MICs against Gram positive bacteria S. aureus ATCC 43300 (MRSA, FQ-S)",50 µg/mL
same,MIC,"S. aureus ATCC 25923; Staphylococcus aureus, ATCC25923, read-out: MICs against Gram positive bacteria S. aureus ATCC 25923",50 µg/mL
